Measurements from patent publication US5500358A, “Antibody catalysis of cyclohexadienone rearrangments” (The Scripps Research Institute, priority 1994, dated 1996).

Tested on: catalytic monoclonal antibody 62C7 (anti-13.3), secreted by hybridoma 62C7, ATCC HB11703
Assay: Antibody-catalyzed dienone-phenol rearrangement of 7 to 8, product formation followed by reverse-phase HPLC
Format: biochemical, Balb/c mice
Procedure: The KLH conjugates of haptens 13.3, 13.4, and 13.5 were then employed to inoculate Balb/c mice and antibodies were generated by standard protocols. (G. Kohler et al. Nature (1975), vol. 265, page 495.) Monoclonal antibodies were purified from ascites fluid by anion exchange chromatography and assayed against substrate 7 for production of the phenol product 8. Fourteen anti-13.3, twenty two anti-13.4, and twenty one anti-13.5 antibodies were assayed for catalysis of the rearrangement reaction converting dienone substrate 7 to phenol product 8. […] Assay condition employed […] in 100 mM NaCl, 50 mM of either bistris(bis(hydroxyethyl)-tris(hydroxymethyl)aminomethane) or 1,3-bis[tris (hydroxymethyl)aminopropane at 37° C. Product formation was followed by reverse-phase HPLC (Vydac C-18 218TP54 column (0.45×22 cm) at a flow rate of 1.5 milliliters/minute using 28% CH3 CN and 72% H2 O+0.1% CF3 COOH. Retention time tR for substrate 7 was 5.02 minutes. Retention time tR for product 8 was 7.14 minutes. The pD (98%) D2 O) values were obtained by adding 0.4 to the pH-electrode reading. […] Antibody 62C7 (anti-13.3) was characterized in detail.
FIG. 3 illustrates the pH-profile of the rearrangement reaction in the presence of catalytic antibody 62C7 (anti-13.3) and without. Background rates are determined in H2 O and in D2 O. The lines are caluclated from the following equations respectively:
kcat =kcat °+kcatH -[H3 O^30 ]^0.92 ;
kH2O =k°+kH +[H3 O^30 ]; kD2O
Accordingly, FIG. 3 illustrates both the antibody 62C7 catalyzed and the background reactions proceed via a hydronium ion catalyzed pathway, viz. kcatH+ =0.176/Mole second, H+ =1.51×10^-3 /Mole second. […] This is consistent with pre-equilibrium protonation of substrate 7 to form a first intermediate 10. This reaction probably reflects the spontaneous rearrangement of substrate 7 to the conjugate base of a second intermediate 12. This rearrangement reaction probably also occurs when substrate 7 is complexed with anti-13.3, i.e., second intermediate 12 is formed within the antibody complex. Importantly, a small inverse secondary isotope effect is observed in all cases at position C(3) of the dienone, viz., kcatH /kCatD =0.88 at pH=5.75, kH /kD =0.88-0.94 from pH=2.95 to 9.54. […] Accordingly, the rate determining step is the […]. (V. Vitullo et al., J. Am. Chem. Soc. (1974), vol. 94, page 3844.) Although this carbon hydrogen bond is ultimately broken to yield the product phenol 8, it is not involved in the rate determining step as this would have given rise to a large, normal isotope effect at that position.

[1] = pH 5.75, 37° C., 100 mM NaCl, 50 mM buffer

| Km (in D2O, pD 7.07, 37° C.) | Km [1] | Km (pH 7.07, 37° C., H2O) | SMILES | kcatH+ (hydronium ion catalyzed pathway of the antibody reaction) (from pH-profile, FIG. 3) | kcat (in D2O, pD 7.07, 37° C.) | kcat / kuncat (in D2O, pD 7.07, 37° C.) | kcat (pH 5.75, 37° C.) | kcat / kuncat (pH 5.75, 37° C.) | kcat (pH 7.07, 37° C., H2O) | kcat / kuncat (pH 7.07, 37° C., H2O) | kcatH /kCatD (secondary isotope effect at position C(3) of the dienone) (pH=5.75, 7 versus 7-d2) |
| --- | --- | --- | --- | --- | --- | --- | --- | --- | --- | --- | --- |
| 1300 µM | 670 µM | 1200 µM | COC1(Cc2ccc(C(=O)NCCO)cc2)C=C(C)C(=O)C(C)=C1 [Compound 7] | 0.176 mol⁻¹ s⁻¹ | 1.25e-06 s⁻¹ | 95 | 1.22e-06 s⁻¹ | 80 | 1.25e-06 s⁻¹ | 90 | 0.88 |
|  | 770 µM |  | [2H]C1=C(C)C(=O)C(C)=C([2H])C1(Cc1ccc(C(=O)NCCO)cc1)OC [Compound 7-d2] |  |  |  | 1.37e-06 s⁻¹ | 80 |  |  |  |
